Entries after “also recorded” stand apart in the source; their conditions may differ.
Key:
Type in all cases: cell-based
[1] = test system: fetal mouse ventricular myocytes; assay: Action potential recordings in neonatal (day 1) / fetal mouse ventricular myocytes; details: listed as MC-II-157c
Method: (§1) Action potentials were recorded from neonatal (day 1) mouse ventricular myocytes as previously reported. Although IKr has little physiologic importance to the action potential of the adult rodent heart, we previously reported that IKr is the dominant repolarizing current in day 1 neonatal myocytes, with little or no IKs. Thus, these neonatal cells are well suited to assess the physiologic relevance of blockade of IKr to the action potential characteristics. In contrast, to address the possibility that compounds inadvertently interact with other channels, action potentials were recorded from adult cardiac myocytes. Myocytes on glass coverslips were placed in a chamber mounted on a modified stage of an inverted microscope.

hERG1 = target: T1, hERG1 (Homo sapiens, UniProt Q12809); assay: Whole cell patch-clamp of hERG1 currents in transfected HEK 293 cells; set-up: Inactivation ΔV0.3: unit not given here; details: for Deactivation Δλ/λcon: deactivation time constant relative to baseline; for Activation V1/2 (mV): shift in voltage-dependence of activation; for Inactivation ΔV0.3: shift in voltage-dependence of inactivation; for Amplitude I/Icon: tail current relative to baseline
T1 construct: expressed in transfected cells; host or cells: HEK 293
Method: (§2) Transfected HEK cells on glass cover slips were placed in a chamber mounted on a modified stage of an inverted microscope. The chamber was superfused at a rate of 2 mL/min with a normal external solution. The extracellular solution contained (in mM) NaCl 140, KCl 5.4, CaCl2 1, MgCl2 1, HEPES 5, glucose 5.5, pH 7.4, with NaOH. Micropipettes were pulled from borosilicate glass capillary tubes on a programmable horizontal puller (Sutter Instruments, Novato, CA). Standard patch-clamp methods were used to measure the whole cell currents of hERG1 mutants expressed in HEK 293 cells using the AXOPATCH 200B amplifier (Axon Instruments). Unless otherwise indicated, tail currents were recorded when the voltage was returned to −50 mV from +50 mV. Further details on electrophysiological methods are collected in Methods S1.
(§3) Electrophysiology Protocol:
(§4) The pipette solution contained the following (at mM concentration): KCl 10, K-aspartate 110, MgCl2 5, Na2ATP 5, EGTA 10, HEPES 5, and CaCl2 1. The solution was adjusted to pH 7.2 with KOH. The extracellular solution contained the following (at mM concentration): NaCl 140, KCl 5.4, CaCl2 1, MgCl2 1, HEPES 5, and glucose 5.5. The solution was adjusted to pH 7.4 with NaOH. For IKr measurements, the whole cell configuration of the patch clamp method was used. The series resistance was less than 7
(§5) MΩ. The data were sampled at 1 kHz. The holding potential was -80 mV. The activation of hERG tail currents was induced by depolarization to a range of potentials from +50 to -100 mV in 10 mV steps for 1 second. This was followed by repolarization to -100 mV for 1 second to record the tail currents.
(§6) -100 mV, a -120 mV 1 second pre-pulse was applied to completely close the hERG channels before subsequent depolarization. All of the tail currents reported in this manuscript represent dofetilide-sensitive currents. The inactivation of hERG was measured by a previously reported triple-pulse protocol5, 6. The holding potential was -80 mV. The hERG channel was first depolarized to +50 mV for 1 second. Recovery from inactivation was achieved using a short pulse (a 10 ms hyperpolarization) to -120 mV, followed by the application of test pulses from -100 to 0 mV for 1 second in 10 mV steps.
(§7) A voltage of -100 mV was selected because it was on the flat part of the inactivation-voltage relationship. The methods employed are identical to ones previously reported. […]

hERG1 E544L = target: T2, hERG1 E544L (Homo sapiens, UniProt Q12809, E544L); assay: Whole cell patch-clamp of hERG1 E544L mutant; details: 10 µM
T2 construct: expressed in transfected cells; host or cells: HEK 293
Method: as §2, §3, §4, §5, §6, §7

[2] = target: T3, cardiac sodium current (INa) (Mus musculus, UniProt Q9JJV9); assay: Patch clamp of INa in neonatal cardiomyocytes
T3 construct: endogenous in cells; host or cells: neonatal (day 1) mouse ventricular cardiomyocytes
Method: as §1
Figure 10 Drug effect on action potential in cardiomyocytes. Panel A. The effect of 20 µM and 3 µM Panel B. MC-II-157c on action potentials neonatal cardiomyocytes. […] In patch clamp studies, the INa was induced by depolarizations to −30 mV from holding potentials of −100 mV. The light traces are baseline and bold traces were recorded with MC-II-157c.

[3] = Conc. 3 µM, listed as MC-II-157c
[4] = Conc. 10 µM, listed as MC-II-157c

T3 sequence (Q9JJV9 whole entry): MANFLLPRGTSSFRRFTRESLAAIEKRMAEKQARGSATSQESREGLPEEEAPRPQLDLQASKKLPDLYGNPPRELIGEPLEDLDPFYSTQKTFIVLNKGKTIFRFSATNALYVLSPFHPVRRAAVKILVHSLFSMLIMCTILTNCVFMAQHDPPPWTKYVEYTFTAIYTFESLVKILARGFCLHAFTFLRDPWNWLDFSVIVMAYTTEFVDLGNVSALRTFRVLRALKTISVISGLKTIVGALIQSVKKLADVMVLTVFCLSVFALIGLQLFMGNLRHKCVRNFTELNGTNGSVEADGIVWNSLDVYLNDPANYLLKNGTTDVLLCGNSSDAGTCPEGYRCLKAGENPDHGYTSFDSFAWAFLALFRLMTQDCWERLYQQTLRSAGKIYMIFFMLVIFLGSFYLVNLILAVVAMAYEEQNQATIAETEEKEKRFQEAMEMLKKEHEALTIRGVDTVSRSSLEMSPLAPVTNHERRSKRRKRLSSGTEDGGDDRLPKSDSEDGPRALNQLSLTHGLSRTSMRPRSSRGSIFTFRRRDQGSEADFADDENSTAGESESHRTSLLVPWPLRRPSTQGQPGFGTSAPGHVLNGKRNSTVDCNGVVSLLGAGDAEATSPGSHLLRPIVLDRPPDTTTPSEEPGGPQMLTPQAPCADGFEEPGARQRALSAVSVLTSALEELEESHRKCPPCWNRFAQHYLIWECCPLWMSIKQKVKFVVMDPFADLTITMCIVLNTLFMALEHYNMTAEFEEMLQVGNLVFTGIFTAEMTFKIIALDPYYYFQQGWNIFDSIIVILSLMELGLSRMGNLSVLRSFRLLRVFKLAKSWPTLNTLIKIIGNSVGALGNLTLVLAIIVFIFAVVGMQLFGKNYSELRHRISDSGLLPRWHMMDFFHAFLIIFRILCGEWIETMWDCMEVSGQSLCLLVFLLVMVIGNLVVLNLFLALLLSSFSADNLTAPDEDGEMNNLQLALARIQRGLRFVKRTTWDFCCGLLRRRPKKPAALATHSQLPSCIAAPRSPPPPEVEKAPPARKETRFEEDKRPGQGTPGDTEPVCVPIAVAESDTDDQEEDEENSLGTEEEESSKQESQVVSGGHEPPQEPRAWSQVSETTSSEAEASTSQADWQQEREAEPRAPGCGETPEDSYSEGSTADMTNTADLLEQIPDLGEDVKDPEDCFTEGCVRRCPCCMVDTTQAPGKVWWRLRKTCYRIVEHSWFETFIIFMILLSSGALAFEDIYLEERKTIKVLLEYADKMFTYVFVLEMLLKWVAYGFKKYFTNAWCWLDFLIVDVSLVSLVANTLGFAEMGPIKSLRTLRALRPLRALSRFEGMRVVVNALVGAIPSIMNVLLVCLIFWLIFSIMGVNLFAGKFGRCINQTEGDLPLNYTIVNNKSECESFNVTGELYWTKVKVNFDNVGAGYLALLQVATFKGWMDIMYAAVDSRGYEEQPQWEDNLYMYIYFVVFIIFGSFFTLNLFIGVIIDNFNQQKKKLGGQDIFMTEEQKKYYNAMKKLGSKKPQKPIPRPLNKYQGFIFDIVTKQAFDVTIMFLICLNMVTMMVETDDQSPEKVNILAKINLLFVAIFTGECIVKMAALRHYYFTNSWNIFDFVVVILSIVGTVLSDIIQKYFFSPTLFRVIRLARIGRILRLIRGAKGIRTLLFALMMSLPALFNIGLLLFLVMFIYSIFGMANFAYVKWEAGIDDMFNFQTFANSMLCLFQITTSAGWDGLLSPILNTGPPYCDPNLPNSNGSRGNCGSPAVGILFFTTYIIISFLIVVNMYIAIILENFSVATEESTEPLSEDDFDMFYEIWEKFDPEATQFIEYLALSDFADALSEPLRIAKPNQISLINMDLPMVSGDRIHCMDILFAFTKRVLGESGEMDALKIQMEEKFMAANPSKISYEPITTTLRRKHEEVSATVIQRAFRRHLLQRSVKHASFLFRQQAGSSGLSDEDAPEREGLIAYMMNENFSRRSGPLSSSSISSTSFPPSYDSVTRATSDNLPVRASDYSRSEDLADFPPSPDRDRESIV

C[C@H](NCc1ccc(C(F)(F)F)cc1)C(=O)NC(=O)Nc1cc(C(F)(F)F)ccc1O [Compound 5]
action potential duration ([1]; 3 µM): significantly shortened action potential duration
upstroke of the action potential, overshoot potential and excitability threshold ([1]; 20 µM): affected the upstroke of the action potential, the overshoot potential and the excitability threshold; also recorded: decreased the upstroke dV/dt of the action potential, the overshoot potential and excitability threshold
lower drug concentration at which effects on deactivation were still manifest (hERG1): ~2 µM
Deactivation Δλ/λcon (hERG1; Conc. 1 µM): 0.2±0.1
Activation V1/2 (mV) (hERG1; Conc. 1 µM): −2±0.0 mV
Inactivation ΔV0.3 (hERG1; Conc. 1 µM): 1.3±0.9
Amplitude I/Icon (hERG1; Conc. 1 µM): 0.95±0.02
Deactivation Δλ/λcon (hERG1; Conc. 3 µM): 0.8±0.1
Deactivation Δλ/λcon (hERG1; [3]): slows deactivation; also recorded: modest slowing of deactivation
Activation V1/2 (mV) (hERG1; Conc. 3 µM): −6.5±0.5 mV
Activation V1/2 (mV) (hERG1; [3]): does shift voltage dependence of activation; also recorded: shifting V1/2 of activation to hyperpolarized potentials
Inactivation ΔV0.3 (hERG1; Conc. 3 µM): 1±1
Amplitude I/Icon (hERG1; Conc. 3 µM): 1.1±0.04
Amplitude I/Icon (hERG1; [3]): significantly increased the tail-current amplitude; also recorded: increases tail current amplitude; also recorded: modest increase in tail current amplitude
Deactivation Δλ/λcon (hERG1; Conc. 10 µM): 3.3±1.3
Activation V1/2 (mV) (hERG1; Conc. 10 µM): −14±3.6 mV
Inactivation ΔV0.3 (hERG1; Conc. 10 µM): 14.0±2.7
Inactivation ΔV0.3 (hERG1; [4]): shifts voltage-dependence of inactivation to depolarized potentials
Amplitude I/Icon (hERG1; Conc. 10 µM): 0.88±0.1
Amplitude I/Icon (hERG1; [4]): 0.88
Deactivation Δλ/λcon (hERG1; Conc. 20 µM): 3.5±0.2
Activation V1/2 (mV) (hERG1; Conc. 20 µM): −15.3±4.1 mV
Inactivation ΔV0.3 (hERG1; Conc. 20 µM): +9.3±2.0
Amplitude I/Icon (hERG1; Conc. 20 µM): 0.86±0.1
Deactivation Δλ/λcon (hERG1; Conc. 50 µM): 4.5±0.1
Activation V1/2 (mV) (hERG1; Conc. 50 µM): −27.5±3.5 mV
Inactivation ΔV0.3 (hERG1; Conc. 50 µM): 26±1
Amplitude I/Icon (hERG1; Conc. 50 µM): 0.83±0.1
magnitude of the effects on activation and deactivation, greater than previously reported with NS1643 (hERG1; relative to NS1643): 6-10 fold
response in amplitude of the tail current in E544L versus WT (hERG1 E544L): markedly diminished
pharmacologic responses (shift in voltage-dependence of activation, slowing of deactivation) in E544L versus WT (hERG1 E544L; listed as MC-II-157c): significantly and substantially less pharmacologic responses; also recorded: significantly and substantially reduced
concentrations at which INa is blocked [2]: > 20 µM
blockade of the sodium current (INa) ([2]; 20 µM, listed as MC-II-157c): blocks a cardiac sodium channel; also recorded: substantially blocks INa
